Data from patent US6627732B1, “Glutathione derivatives and their dosage forms” (Teijin Limited, priority 1998, dated 2003).

Experiments:
[1] = Pharmacokinetics after intravenous administration to rabbits, 2-compartment model (Example 25); format: in vivo, rabbit; conditions: iv auricular vein 2 ml/kg, fat emulsion (Comparative Ex. 1: HPCD/glucose solution)
Source text: For the glutathione derivative of the present invention having a long-chain ester having 12 carbons or more and the glutathione derivatives of the conventional technology of Comparative Examples 1 and 2, kinetics in the blood were compared in rabbits that are a species having allow esterase activity in the blood.
(1) Male Japanese white rabbits, 12-week old or older, were purchased from Ichikawaya, and those rabbits that became 15-week old or older and whose body weight reached about 3 kg were used for the experiment. During the period up to the experiment, the animals were allowed free access to the animal feed and drinking water and were kept at a temperature of 24±2° C. and a humidity of 55±5%.
(2) The glutathione derivative having a long-chain ester of 12 carbons or more and the glutathione derivative of Comparative Example 2 were prepared at 20-200 mg/ml in a mixture of ethanol or ethanol:benzyl alcohol, which was mixed with the fat emulsion just prior to use, and was filtered with a 1.2 μm filter to obtain a liquid for intravenous administration. On the other hand, the glutathione derivative of Comparative Example 1 was dissolved in an aqueous solution of 6%-hydroxypropyl-β-cyclodextrin/5%-glucose at 15 mg/ml to obtain an administration liquid.
(3) The administration liquid of the glutathione derivative obtained in (2) at a dose of 2 ml/kg was rapidly infused into the left auricular vein of the rabbits under no anesthesia and under restraint at a rate of 1 ml/min. Each glutathione derivative was given to three or more rabbits. At 5, 10, 15, 30, 60, 120, and 240 minutes after the completion of the administration, 1 ml of the blood was drawn from the right auricular vein in the presence of heparin, which was immediately cooled on ice. Plasma was obtained by centrifuging the blood, 1-2 volume parts of acetonitrile was added to deproteinize the supernatant, which was filtered by a 0.5 μm filter. The supernatant of the filtrate was quantitated by HPLC.

swine liver esterase = assay: Decomposition of glutathione derivatives by swine liver esterase (physiological stability); format: in vitro ADME; conditions: BSA/D-PBS pH 7.4, 196-244 μg/ml
Method: (§1) (1) Bovine serum albumin (hereinafter referred to as BSA), Dulbecco's phosphate buffered saline (hereinafter referred to as D-PBS), swine liver esterase, and rabbit liver esterase were purchased from Sigma, 6-week old male SD rats were purchased from Nippon SLC, and 12-week old or older male Japanese white rabbits were purchased from Ichikawaya. On the day of the incubation experiment described below, blood was drawn from the animals in the presence of heparin, and plasma was separated therefrom for use. Human plasma was obtained from normal healthy males after obtaining their consent.
(§2) (2) The glutathione derivatives described in the Examples and Comparative Examples of the present invention were incubated for a fixed time in an enzyme solution having the following composition. Acetonitrile was added to the reaction mixture to inactivate the enzyme thereby to stop the reaction. The concentration of the glutathione derivatives in the deproteinized supernatant was measured by HPLC. For each time point of the esterase enzyme experiment, the mean values from two measurement or more were determined, and for the rats and rabbits the mean values of plasma samples from three individuals were determined. For some of the experiment data, changes with time of percentages relative to initial concentration of the glutathione derivative are shown in FIGS. 2 to 4.
(§3) Swine liver esterase and rabbit liver esterase experiment
(§4) 30 mg-BSA/ml-D-PBS (pH 7.4): 36 to 45 parts
(§5) Swine or rabbit liver esterase/D-PBS: 4-5 parts
(§6) 10 mg-glutathione derivative/ml-ethanol: one part (the final concentration in the reaction mixture is 196-244 μg/ml)

[2] = tested on: rat models of suppressed hematopoietic function by 5-FU administration; assay: Recovery of neutrophil counts in rat models of suppressed hematopoietic function by 5-FU (Example 26); format: in vivo; conditions: 5-FU rats, days 2-10
Source text: Regarding the effect of promoting the recovery of neutrophil counts in rat models of suppressed hematopoietic function by 5-fuluorouracil administration, statistical significance was compared to the control group to compare the pharmaceutical composition containing Example 4 of the present invention as an active ingredient with the pharmaceutical composition of the conventional technology of Comparative Example 1 and granulocyte colony-stimulating factor (G-CSF).
(1) Animals used and the keeping condition: Male SD rats, 6-week old, purchased from Nippon SLC were used. The animal feed (manufactured by Oriental Yeast Co., Ltd.) and drinking water (well water treated with 0.4±0.2 ppm hypochlorous acid) were given ad libitum during the period of the experiment. The animals were housed in a hanging-type rat cage (manufactured by Nippon Cage K.K.) and kept at a temperature of 24±2° C. and a humidity of 55±5%.
(2) Creation of rat models of suppressed hematopoietic function by 5-FU administration; Creation of rat models of suppressed hematopoietic function by 5-FU (Kyowa Hakko Kogyo Co. Ltd.) administration was carried out based on the method of Akamatsu et al. (Yakuri to Chiryo(Pharmacology and Therapy), 18. (Suppl. 9), 317-356 (1990)). Thus, on the first day of the experiment, 5-FU at 50 mg/kg-body weight (dosage volume is 1 ml/kg-body weight) or the same amount of physiological saline (manufactured by Fuso Pharmaceuticals Industries, Ltd.) was intraperitoneally administered to the rats described in (1). On days 4, and 7-12, blood was drawn from the jugular vein and the EDTA-2K-treated blood was obtained. The blood was used to determine the neutrophil count using a general chemistry test instrument (Technicon H-1E, manufactured by Bayer-Sankyo K.K.) and the ratio of reticulocytes using a reticulocyte determination instrument (EPICS, XL-MCL, manufactured by Coulter K.K.). Blood was also drawn on day 1 of the experiment, and the values determined for the blood were used as the pre-administration values.
In the physiological saline administration group, no changes in neutrophil count were observed throughout the experiment period, whereas in the 5-FU administration group there was a reduction in neutrophil count with the lowest value observed on day 8 of the experiment, and the neutrophil count was recovered to the value before 5-FU administration or higher on day 10 of the experiment or after. The above results confirmed that rat models of suppressed hematopoietic function can be created by a single intraperitoneal administration of 5-FU at 50 mg/kg-body weight.
(3) Evaluation of Example 4 and Comparative Example 1 in the above model; To the model described in (2), the glutathione derivative of Example 4 combined with the fat emulsion at 10 to 30 mg/kg-body weight/day or the glutathione derivative of Comparative Example 1 dissolved in a physiological saline containing 2.5% hydroxypropyl-β-cyclodextrin at 50 mg/kg-body weight/day was repeatedly administered into the tail vein for 9 days from day 2 to 10 of the experiment. The recombinant human G-CSF formulation (hereinafter referred to as G-CSF, manufactured by Chugai Pharmaceutical Co., Ltd.) as the positive control at 10 μg/kg-body weight/day and the empty fat emulsion as the negative control were administered in a similar manner. […]

rabbit liver esterase = assay: Decomposition of glutathione derivatives by rabbit liver esterase (physiological stability); format: in vitro ADME; conditions: BSA/D-PBS pH 7.4, 196-244 μg/ml
Method: as §1, §2, §3, §4, §5, §6

Decomposition rate constant by swine liver esterase (swine liver esterase) | Decomposition rate constant by rabbit liver esterase (rabbit liver esterase) | Compound | Clearance per body weight [1] [mL/min/kg] | Distribution volume per body weight of the central compartment [1] [L/kg] | Neutrophil counts relative to the negative control group ([2]; HPCD solution 50 mg/kg-body weight/day iv, significant (5%) on day 12 only) | Neutrophil counts relative to the negative control group ([2]; fat emulsion 10 mg/kg-body weight/day iv) | Neutrophil counts relative to the negative control group ([2]; fat emulsion 20 mg/kg-body weight/day iv, days 9 to 11, significance 1% to 0.1%) | Neutrophil counts relative to the negative control group ([2]; fat emulsion 30 mg/kg-body weight/day iv, from day 8, significance 5%-0.1%)
121 10^−4/unit/min | – | CCOC(=O)[C@@H](N)CCC(=O)N[C@@H](CSCc1ccccc1)C(=O)N[C@@H](C(=O)OCC)c1ccccc1.Cl [Comparative Example 1, Glu(Cys(Bzl)-D-Phg-O(Et))-O(Et)hydrochloride, reference compound] | 254.5 | 0.80 | no changes were observed compared to the negative control group | – | – | –
364 10^−4/unit/min | 267 10^−4/unit/min | CCCCCCCCOC(=O)[C@H](NC(=O)[C@H](CSCc1ccccc1)NC(=O)CC[C@H](N)C(=O)OCC)c1ccccc1.Cl [Comparative Example 2, Glu(Cys(Bzl)-D-Phg-O(Octyl))-O(Et)hydrochloride, reference compound] | 156 | 4.18 | – | – | – | –
0.466 10^−4/unit/min | 0.836 10^−4/unit/min | CCCCCCCCCCCCCCCCOC(=O)[C@@H](N)CCC(=O)N[C@@H](CSCc1ccccc1)C(=O)N[C@@H](C(=O)OCC)c1ccccc1.Cl [Example 4, Glu(Cys(Bzl)-D-Phg-OEt)-O(Hexadecyl)hydrochloride] | 3.33 | 0.06 | – | No changes were observed | statistically significant increase | statistically significant increase
